Read-outs that look alike come from different tables or passages of the source.
System: HIV
Experiment: HIV infection in cell culture (syncytia formation; PBLs or H9 cells)
Format: cell-based
Conditions: read-out: IC50 (concentration at which 50% of the virus-induced syncytia were suppressed)
Method: The HIV test was carried out with slight modifications according to the method of Pauwels et al. [cf. Journal of Virological Methods 20, (1988), 309-321].
Normal human blood lymphocytes (PBLs) were concentrated by means of Ficoll-Hypaque and stimulated with phytohaemagglutinin (90 μg/ml) and interleukin-2 (40 U/ml) in RPMI 1640 and 20% foetal calf serum. For infection with the infectious HIV, PBLs were pelleted and the cell pellet was then suspended in 1 ml of HIV virus adsorption solution and incubated for 1 hour at 37° C.
Alternatively, HIV-susceptible H9 cells were employed instead of normal human blood lymphocytes for testing the antiviral effects of the compounds according to the invention.
The virus adsorption solution was centrifuged and the infected cell pellet was taken up in growth medium so that a concentration of 1×10^5 cells per ml was established. The cells infected in this way were pipetted into the wells of 96-well microtiter plates to give 1×10^4 cells/well.
The first vertical row of the microtiter plate contained only growth medium and cells which had not been infected, but otherwise treated exactly as described above (cell control). The second vertical row of the microtiter plate contained only HIV-infected cells (virus control) in growth medium. The other wells contained the compounds according to the invention in differing concentrations, starting from the wells of the 3rd vertical row of the microtiter plate, from which the test substances were diluted 2^10 times in 2-fold steps.
The test batches were incubated at 37° C. until, in the untreated virus control, the syncytia formation typical of HIV occurred (between day 3 and 6 after infection), which was then microscopically assessed. Under these test conditions, in the untreated virus control about 20-50 syncytia resulted, while the untreated cell control contained no syncytia.
The IC50 values were determined as the concentration of the treated and infected cells at which 50% (about 10-20 syncytia) of the virus-induced syncytia were suppressed by treatment with the compound according to the invention.

[1] = Human immunodeficiency virus 1, 72 h, HIV-infected PBLs or alternatively H9 cells, 37° C., read between day 3 and 6 after infection

Structure (SMILES) | IC50 (Human immunodeficiency virus 1, H9, 72 h) [µM] | IC50 [1] [µM]
Cc1ccnc2c1NC(=O)c1cccnc1N2C1CC1 [BIRG 587, reference compound] | 0.09 | –
CN(C)CCON=c1c2cc(Cl)ccc2[nH]c(=S)c2ccccc12 [Example 2] | – | 1.5
S=c1[nH]c2ccc(Cl)cc2c(=NOCCN2CCOCC2)c2ccccc12 [Example 3] | – | 0.38
CON=c1c2cc(Cl)ccc2[nH]c(=S)c2ccccc12 [Example 4] | – | 0.38

Source: patent publication US5545736A, “6-thiono-5,6-dihydro-dibenz[B,E] azepin-11-one-11-oximes” (Bayer Aktiengesellschaft, priority 1991, dated 1996)
